Assay results: ChEMBL document CHEMBL1158626, “Structure-activity relationship (SAR) investigations of tetrahydroquinolines as BKCa agonists” (2010)

organism: Rattus norvegicus; experiment: Reduction in spontaneous neuronal firing in Sprague-Dawley rat at 10 uM; type: functional

With `O=C(O)c1ccc2c(c1)[C@@H]1C=CC[C@@H]1[C@@H](c1ccc(Cl)cc1Cl)N2` the “inhibition (INH)” value was 75%.

tested on: not listed separately; experiment: Agonist activity at human BKCa channel expressed in CHO cells assessed as increase in potassium current at 10 uM by PatchXpress electrophysiology assay relative to control; type: functional

First: O=C(O)c1ccc2c(c1)[C@@H]1C=CC[C@@H]1[C@@H](c1ccc(C(F)(F)F)cc1)N2
Second: O=C(O)c1ccc2c(c1)[C@@H]1C=CC[C@@H]1[C@@H](c1ccc(Br)cc1)N2
The “fold change (FC)” value of the first is lower: 6 for the first, 8.9 for the second.

First: O=C(O)c1ccc2c(c1)[C@@H]1C=CC[C@@H]1[C@@H](c1ccccc1Cl)N2
Second: O=C(O)c1ccc2c(c1)[C@@H]1C=CC[C@@H]1[C@@H](c1cccc(Cl)c1Cl)N2
The “fold change (FC)” value of the first is higher: 4.9 for the first, 2.7 for the second.

Compared with `CC(C)(C)[C@H]1Nc2ccc(C(=O)O)cc2[C@@H]2C=CC[C@@H]21`, `Cn1cc([C@H]2Nc3ccc(C(=O)O)cc3[C@@H]3C=CC[C@H]23)cn1` is higher in “fold change (FC)” value: 0.8 for the first, 1 for the second.

Compared with `Cc1cccc([C@H]2Nc3ccc(C(=O)O)cc3[C@@H]3C=CC[C@H]23)c1`, `O=C(O)c1ccc2c(c1)[C@@H]1C=CC[C@@H]1[C@@H](c1cccc(Cl)c1)N2` is lower in “fold change (FC)” value: 3.1 for the first, 2.2 for the second.

First: O=C(O)c1ccc2c(c1)[C@@H]1C=CC[C@@H]1[C@@H](c1ccccc1)N2
Second: O=C(O)c1ccc2c(c1)[C@@H]1C=CC[C@@H]1[C@@H](c1cccc(Br)c1)N2
The “fold change (FC)” value of the first is lower: 1.2 for the first, 2.6 for the second.

Compared with `Cc1ccc([C@H]2Nc3ccc(C(=O)O)cc3[C@@H]3C=CC[C@H]23)c(C)c1`, `O=C(O)c1ccc2c(c1)[C@@H]1C=CC[C@@H]1[C@@H](c1ccc(Cl)cc1Cl)N2` is higher in “fold change (FC)” value: 8.9 for the first, 11.2 for the second.

Compared with `O=C(O)c1ccc2c(c1)[C@@H]1C=CC[C@@H]1[C@@H](c1ncc(Cl)cc1Cl)N2`, `O=C(O)c1ccc2c(c1)[C@@H]1C=CC[C@@H]1[C@@H](c1ccc(Cl)c(Cl)c1)N2` is higher in “fold change (FC)” value: 2.5 for the first, 12.1 for the second.

First: O=C(O)c1ccc2c(c1)[C@@H]1C=CC[C@@H]1CN2
Second: O=C(O)c1ccc2c(c1)[C@@H]1C=CC[C@@H]1[C@@H](c1ccc(Cl)cc1)N2
The “fold change (FC)” value of the first is lower: 0.6 for the first, 7.3 for the second.

tested on: not listed separately; experiment: Agonist activity at human BKCa channel expressed in CHO cells assessed as increase in potassium current at 3 uM by PatchXpress electrophysiology assay relative to control; type: functional

First: CS(=O)(=O)NC(=O)c1ccc2c(c1)[C@@H]1C=CC[C@@H]1[C@@H](c1ccc(Cl)cc1Cl)N2
Second: CONC(=O)c1ccc2c(c1)[C@@H]1C=CC[C@@H]1[C@@H](c1ccc(Cl)cc1Cl)N2
The “fold change (FC)” value of the first is higher: 2.7 for the first, 2.2 for the second.

Going from `O=c1[nH]c(-c2ccc3c(c2)[C@@H]2C=CC[C@@H]2[C@@H](c2ccc(Cl)cc2Cl)N3)no1` to `O=C(O)c1ccc2c(c1)[C@@H]1C=CC[C@@H]1[C@@H](c1ccc(Cl)cc1Cl)N2`, the “fold change (FC)” value rises from 3.4 to 6.7.

`OCc1ccc2c(c1)[C@@H]1C=CC[C@@H]1[C@@H](c1ccc(Cl)cc1Cl)N2` and `O=C(O)Cc1ccc2c(c1)[C@@H]1C=CC[C@@H]1[C@@H](c1ccc(Cl)cc1Cl)N2` are the same in “fold change (FC)” value: 1.5 for the first, 1.5 for the second.

Going from `O=C(O)c1ccc2nc(-c3ccc(Cl)cc3Cl)c3c(c2c1)CCC3` to `O=C(O)c1ccc2c(c1)CC[C@@H](c1ccc(Cl)cc1Cl)N2`, the “fold change (FC)” value falls from 1 to 0.9.

Going from `O=C(O)c1ccc2c(c1)C1OCCC[C@@H]1[C@@H](c1ccc(Cl)cc1Cl)N2` (single isomer, unassigned) to `O=C(O)c1ccc2c(c1)[C@@H]1OCC[C@@H]1[C@@H](c1ccc(Cl)cc1Cl)N2`, the “fold change (FC)” value falls from 1.5 to 1.

First: O=C(O)c1ccc2c(c1)C1CCCC[C@@H]1[C@@H](c1ccc(Cl)cc1Cl)N2 (single isomer, unassigned)
Second: O=C(O)c1ccc2c(c1)[C@@H]1CCC[C@@H]1[C@@H](c1ccc(Cl)cc1Cl)N2
The “fold change (FC)” value of the first is lower: 3.6 for the first, 4.6 for the second.

Going from `COC(=O)c1ccc2c(c1)[C@@H]1C=CC[C@@H]1[C@@H](c1ccc(Cl)cc1Cl)N2` to `O=C(O)c1ccc2c(c1)C1C=CCC[C@@H]1[C@@H](c1ccc(Cl)cc1Cl)N2` (single isomer, unassigned), the “fold change (FC)” value rises from 1 to 4.5.

With `O=C(O)c1ccc2c(c1)[C@@H]1C(O)C(O)C[C@@H]1[C@@H](c1ccc(Cl)cc1Cl)N2` (some centres not stated) the “fold change (FC)” value was 0.9.
